# ChEMBL document CHEMBL5370650, “Discovery of Clinical Candidate NT-0796, a Brain-Penetrant and Highly Potent NLRP3 Inflammasome Inhibitor for Neuroinflammatory Disorders” (J Med Chem, 2023)
# Active and inactive are the calls of the source. No cut-off for these calls is given here.
# Legend:
# [1] = Permeability of compound at pH 7.4 incubated for 4 hrs by […] based PAMPA assay; type: ADME; conditions: read-out: permeability
# [2] = Inhibition of LPS-induced TNFalpha secretion in human PBMC cells incubated for 4 hrs by ELISA
# [3] = Inhibition of LPS-induced IL-6 secretion in human PBMC cells incubated for 4 hrs by ELISA
# [4] = Kinetic solubility of compound in PBS at pH7.4 at 1 to 200 uM incubated for 24 hrs by LC-UV analysis; type: physicochemical; conditions: pH 7.4, dose 1-200 µM, read-out: Kinetic_solubility
# Cytochrome P450 1A2 = target: T1, Cytochrome P450 1A2 (Homo sapiens, UniProt P05177); assay: Reversible inhibition of CYP1A2 in human liver microsomes in presence of NADPH by LC-MS/MS analysis; type: ADME, Microsome
# T1 sequence (P05177 whole entry): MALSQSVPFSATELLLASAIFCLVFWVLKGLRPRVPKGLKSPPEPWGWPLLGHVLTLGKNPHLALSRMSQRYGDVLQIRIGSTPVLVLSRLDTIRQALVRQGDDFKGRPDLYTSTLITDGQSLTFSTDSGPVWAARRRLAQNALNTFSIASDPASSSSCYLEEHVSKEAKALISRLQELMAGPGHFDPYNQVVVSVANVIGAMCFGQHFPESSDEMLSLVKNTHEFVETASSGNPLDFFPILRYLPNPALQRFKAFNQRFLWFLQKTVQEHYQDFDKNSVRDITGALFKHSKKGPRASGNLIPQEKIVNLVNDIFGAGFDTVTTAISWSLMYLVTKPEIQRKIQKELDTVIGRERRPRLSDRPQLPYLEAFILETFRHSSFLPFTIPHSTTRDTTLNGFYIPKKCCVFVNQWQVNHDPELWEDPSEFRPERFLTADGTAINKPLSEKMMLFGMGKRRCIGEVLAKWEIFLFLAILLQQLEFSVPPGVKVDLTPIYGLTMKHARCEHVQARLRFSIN
# [5] = target: T2, NACHT, LRR and PYD domains-containing protein 3 (Homo sapiens, UniProt Q96P20); assay: Inhibition of NLRP3 inflammasome activation in LPS-activated human PBMC cells assessed as inhibition of ATP/nigericin induced IL-1beta secretion preincubated with LPS for 3 hrs followed by compound addition for 30 mins and further stimulated with ATP for 1 hr by ELISA; type: cell-based
# [6] = target: T2, NACHT, LRR and PYD domains-containing protein 3; assay: Inhibition of NLRP3 inflammasome activation in human whole blood assessed as inhibition of LPS/ATP induced IL-1beta secretion preincubated with LPS for 3 hrs followed by compound addition for 30 mins and further stimulated with ATP for 60 mins by ELISA; type: tissue-based
# Cytochrome P450 2C19 = Cytochrome P450 2C19 (Homo sapiens, UniProt P33261); assay: Reversible inhibition of CYP2C19 in human liver microsomes using S-mephenytoin as substrate incubated for 20 mins in presence of NADPH by LC-MS/MS analysis; type: ADME, Microsome
# [7] = Induction of steatosis in human HepG2 cells assessed as accumulation of triglycerides in cytoplasm by high content screening analysis; type: toxicity, cell-based
# [8] = Ratio of drug concentration in C57BL/6J mouse brain to blood at 3 mg/kg, iv measured after 5 mins by LC-MS/MS analysis; type: ADME, organism-based; conditions: read-out: BBR
# Cytochrome P450 2B6 = target: T3, Cytochrome P450 2B6 (Homo sapiens, UniProt P20813); assay: Reversible inhibition of CYP2B6 in human liver microsomes in presence of NADPH by LC-MS/MS analysis; type: ADME, Microsome
# T3 sequence (P20813 whole entry): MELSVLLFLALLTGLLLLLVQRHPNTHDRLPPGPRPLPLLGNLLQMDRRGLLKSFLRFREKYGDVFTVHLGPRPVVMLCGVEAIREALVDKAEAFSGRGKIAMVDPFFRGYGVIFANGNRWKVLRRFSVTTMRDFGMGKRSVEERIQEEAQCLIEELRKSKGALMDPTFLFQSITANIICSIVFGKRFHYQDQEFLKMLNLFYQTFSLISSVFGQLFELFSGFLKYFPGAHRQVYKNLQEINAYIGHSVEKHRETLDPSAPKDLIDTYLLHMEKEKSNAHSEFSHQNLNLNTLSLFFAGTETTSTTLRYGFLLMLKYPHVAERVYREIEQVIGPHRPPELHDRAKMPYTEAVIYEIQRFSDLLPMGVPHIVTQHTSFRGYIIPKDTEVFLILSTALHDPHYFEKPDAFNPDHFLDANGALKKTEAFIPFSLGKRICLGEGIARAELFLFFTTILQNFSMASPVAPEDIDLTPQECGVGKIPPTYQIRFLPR
# NLRC4 (Homo sapiens) = assay: Inhibition of NLRC4 inflammasome activation in human PBMC assessed as reduction in IL-1beta secretion at 3 nM preincubated with LPS for 2.5 hrs followed by compound addition for 30 mins by ELISA
# [9] = target: 5-hydroxytryptamine receptor 2B (Homo sapiens) (UniProt P41595); assay: Antagonist activity at 5HT2B (unknown origin) at 10 uM by Eurofins-CEREP panel assay relative to control; type: functional; set-up: scale not given: the % may be the effect or the level left; conditions: filed as antagonist
# [10] = Phototoxicity in mouse BALB/3T3 clone A31 cells incubated under dark condition for 1 hr followed by 2.5 J/cm2 UVA light irradiation for 18 mins by neutral red dye based assay; type: toxicity, cell-based; conditions: balb/3t3 clone a31, 1.3 h, time 78 min
# [11] = Drug concentration in C57BL/6J mouse brain at 3 mg/kg, iv measured after 5 mins by LC-MS/MS analysis; type: ADME, organism-based; conditions: read-out: Ct
# Cytochrome P450 2C8 = target: T4, Cytochrome P450 2C8 (Homo sapiens, UniProt P10632); assay: Reversible inhibition of CYP2C8 in human liver microsomes in presence of NADPH by LC-MS/MS analysis; type: ADME, Microsome
# T4 sequence (P10632 whole entry): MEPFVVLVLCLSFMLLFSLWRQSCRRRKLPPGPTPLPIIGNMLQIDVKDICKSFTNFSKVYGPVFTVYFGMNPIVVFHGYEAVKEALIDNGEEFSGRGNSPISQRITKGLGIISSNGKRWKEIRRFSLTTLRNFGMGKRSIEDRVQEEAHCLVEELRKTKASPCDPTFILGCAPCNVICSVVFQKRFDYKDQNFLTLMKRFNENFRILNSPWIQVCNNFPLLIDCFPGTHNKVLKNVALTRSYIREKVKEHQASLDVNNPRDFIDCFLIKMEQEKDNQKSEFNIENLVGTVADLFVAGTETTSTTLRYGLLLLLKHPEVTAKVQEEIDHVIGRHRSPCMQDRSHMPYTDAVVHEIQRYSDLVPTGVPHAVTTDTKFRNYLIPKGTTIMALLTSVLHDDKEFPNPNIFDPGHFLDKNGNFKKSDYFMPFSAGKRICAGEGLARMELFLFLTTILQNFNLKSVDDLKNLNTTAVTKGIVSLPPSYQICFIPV
# [12] = Drug concentration in C57BL/6J mouse blood at 3 mg/kg, iv measured after 5 mins by LC-MS/MS analysis; type: ADME, organism-based; conditions: read-out: Ct
# Cytochrome P450 2C9 = Cytochrome P450 2C9 (Homo sapiens, UniProt P11712); assay: Reversible inhibition of CYP2C9 in human liver microsomes in presence of NADPH by LC-MS/MS analysis; type: ADME, Microsome
# [13] = target: Voltage-gated inwardly rectifying potassium channel KCNH2 (Homo sapiens, UniProt Q12809); assay: Inhibition of hERG transfected in CHO cells at -80 mV holding potential by Whole-cell patch clamp assay; type: toxicity, cell-based
# [14] = Mutagenicity in Salmonella typhimurium by Ames test; type: toxicity; conditions: salmonella enterica subsp. enterica serovar typhimurium
# HepG2 = assay: Induction of phospholipidosis in human HepG2 cells assessed as increase in phospholipids within lysosome by high content screening analysis; type: toxicity, cell-based
# Cytochrome P450 3A4 [15] = target: T5, Cytochrome P450 3A4 (Homo sapiens, UniProt P08684); assay: Reversible inhibition of CYP3A4 in human liver microsomes using midazolam as substrate in presence of NADPH by LC-MS/MS analysis; type: ADME, Microsome
# Cytochrome P450 2D6 = Cytochrome P450 2D6 (Homo sapiens, UniProt P10635); assay: Reversible inhibition of CYP2D6 in human liver microsomes in presence of NADPH by LC-MS/MS analysis; type: ADME, Microsome
# Cytochrome P450 3A4 [16] = target: T5, Cytochrome P450 3A4; assay: Reversible inhibition of CYP3A4 in human liver microsomes using nifedipine as substrate incubated for 5 mins in presence of NADPH by LC-MS/MS analysis; type: ADME, Microsome
# T5 sequence (P08684 whole entry): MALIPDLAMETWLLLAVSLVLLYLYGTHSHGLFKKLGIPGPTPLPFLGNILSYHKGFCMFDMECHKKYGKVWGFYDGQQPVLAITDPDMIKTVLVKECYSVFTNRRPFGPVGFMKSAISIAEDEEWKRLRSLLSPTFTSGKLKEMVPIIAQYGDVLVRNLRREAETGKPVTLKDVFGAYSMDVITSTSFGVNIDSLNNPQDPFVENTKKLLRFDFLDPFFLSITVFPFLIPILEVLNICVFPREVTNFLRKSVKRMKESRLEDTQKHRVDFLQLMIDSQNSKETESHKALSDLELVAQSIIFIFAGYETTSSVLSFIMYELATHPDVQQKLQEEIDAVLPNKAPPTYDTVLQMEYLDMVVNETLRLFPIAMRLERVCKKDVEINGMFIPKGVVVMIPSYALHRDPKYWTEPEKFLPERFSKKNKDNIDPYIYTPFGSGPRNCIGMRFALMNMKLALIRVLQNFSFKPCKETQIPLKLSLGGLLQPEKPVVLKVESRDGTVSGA
# Chain of Cytochrome P450 2C19 (P33261 whole entry): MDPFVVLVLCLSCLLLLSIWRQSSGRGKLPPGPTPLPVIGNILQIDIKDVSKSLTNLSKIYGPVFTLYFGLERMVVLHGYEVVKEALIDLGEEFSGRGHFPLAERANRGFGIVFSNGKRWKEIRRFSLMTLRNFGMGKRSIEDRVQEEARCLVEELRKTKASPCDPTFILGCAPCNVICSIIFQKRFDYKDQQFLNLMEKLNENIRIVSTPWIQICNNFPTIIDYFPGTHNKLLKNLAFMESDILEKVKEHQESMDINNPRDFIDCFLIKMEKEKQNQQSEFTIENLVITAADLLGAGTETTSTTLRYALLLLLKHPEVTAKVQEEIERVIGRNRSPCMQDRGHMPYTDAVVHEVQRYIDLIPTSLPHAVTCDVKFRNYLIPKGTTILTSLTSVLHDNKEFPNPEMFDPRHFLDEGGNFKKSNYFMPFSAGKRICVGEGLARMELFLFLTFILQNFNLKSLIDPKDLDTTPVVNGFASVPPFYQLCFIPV
# T2 sequence (Q96P20 whole entry, the tested form may be a part): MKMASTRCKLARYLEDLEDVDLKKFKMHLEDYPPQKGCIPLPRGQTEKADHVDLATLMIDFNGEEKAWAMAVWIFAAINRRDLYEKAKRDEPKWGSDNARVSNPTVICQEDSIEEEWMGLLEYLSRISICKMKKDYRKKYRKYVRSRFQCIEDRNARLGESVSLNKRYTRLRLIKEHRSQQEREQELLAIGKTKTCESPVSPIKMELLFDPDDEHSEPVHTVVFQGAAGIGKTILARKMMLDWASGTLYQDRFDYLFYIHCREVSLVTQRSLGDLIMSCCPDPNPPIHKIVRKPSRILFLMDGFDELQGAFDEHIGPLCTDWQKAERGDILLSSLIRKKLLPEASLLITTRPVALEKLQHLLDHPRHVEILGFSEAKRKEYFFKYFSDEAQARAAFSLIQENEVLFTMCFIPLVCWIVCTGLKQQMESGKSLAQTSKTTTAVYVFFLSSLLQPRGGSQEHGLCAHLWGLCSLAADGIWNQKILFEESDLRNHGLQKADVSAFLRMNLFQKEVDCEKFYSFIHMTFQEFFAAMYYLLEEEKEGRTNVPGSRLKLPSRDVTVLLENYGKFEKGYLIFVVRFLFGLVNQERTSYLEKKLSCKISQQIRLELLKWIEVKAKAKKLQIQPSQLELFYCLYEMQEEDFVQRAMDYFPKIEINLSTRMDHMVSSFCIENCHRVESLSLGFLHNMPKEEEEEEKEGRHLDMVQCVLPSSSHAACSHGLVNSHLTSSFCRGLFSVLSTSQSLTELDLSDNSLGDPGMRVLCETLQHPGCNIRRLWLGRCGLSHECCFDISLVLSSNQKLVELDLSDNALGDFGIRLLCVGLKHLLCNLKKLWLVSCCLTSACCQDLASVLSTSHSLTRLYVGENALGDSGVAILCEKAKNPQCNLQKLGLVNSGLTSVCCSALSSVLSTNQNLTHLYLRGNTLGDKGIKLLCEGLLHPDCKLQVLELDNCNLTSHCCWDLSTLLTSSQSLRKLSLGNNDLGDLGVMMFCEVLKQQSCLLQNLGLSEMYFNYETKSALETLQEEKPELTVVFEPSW
# Chain of Cytochrome P450 2C9 (P11712 whole entry): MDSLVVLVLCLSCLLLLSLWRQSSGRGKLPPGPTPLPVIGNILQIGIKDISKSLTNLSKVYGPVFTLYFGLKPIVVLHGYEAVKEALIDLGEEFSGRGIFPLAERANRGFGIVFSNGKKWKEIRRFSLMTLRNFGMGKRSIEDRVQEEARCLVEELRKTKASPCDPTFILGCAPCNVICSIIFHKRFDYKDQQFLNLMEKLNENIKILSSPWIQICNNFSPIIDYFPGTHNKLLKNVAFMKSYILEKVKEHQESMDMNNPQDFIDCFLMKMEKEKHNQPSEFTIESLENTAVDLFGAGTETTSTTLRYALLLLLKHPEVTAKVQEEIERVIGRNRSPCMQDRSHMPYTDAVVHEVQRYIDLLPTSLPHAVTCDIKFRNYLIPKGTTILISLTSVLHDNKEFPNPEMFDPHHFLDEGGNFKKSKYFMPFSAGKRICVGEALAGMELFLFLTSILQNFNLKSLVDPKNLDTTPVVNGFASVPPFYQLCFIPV
# Chain of Cytochrome P450 2D6 (P10635 whole entry): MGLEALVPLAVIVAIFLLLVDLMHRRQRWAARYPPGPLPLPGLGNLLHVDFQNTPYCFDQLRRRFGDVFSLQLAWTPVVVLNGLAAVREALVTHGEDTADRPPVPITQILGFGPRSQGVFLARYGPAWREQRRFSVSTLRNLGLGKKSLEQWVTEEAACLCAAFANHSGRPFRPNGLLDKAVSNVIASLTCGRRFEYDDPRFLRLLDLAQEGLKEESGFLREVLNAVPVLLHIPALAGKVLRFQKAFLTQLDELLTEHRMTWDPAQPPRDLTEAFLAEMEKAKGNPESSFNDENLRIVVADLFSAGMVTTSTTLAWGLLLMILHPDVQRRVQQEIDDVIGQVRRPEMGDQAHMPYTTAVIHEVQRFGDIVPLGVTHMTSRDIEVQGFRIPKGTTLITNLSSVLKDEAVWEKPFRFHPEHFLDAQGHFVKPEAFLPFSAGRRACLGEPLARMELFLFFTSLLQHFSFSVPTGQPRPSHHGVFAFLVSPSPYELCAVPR
# Chain of Voltage-gated inwardly rectifying potassium channel KCNH2 (Q12809 whole entry): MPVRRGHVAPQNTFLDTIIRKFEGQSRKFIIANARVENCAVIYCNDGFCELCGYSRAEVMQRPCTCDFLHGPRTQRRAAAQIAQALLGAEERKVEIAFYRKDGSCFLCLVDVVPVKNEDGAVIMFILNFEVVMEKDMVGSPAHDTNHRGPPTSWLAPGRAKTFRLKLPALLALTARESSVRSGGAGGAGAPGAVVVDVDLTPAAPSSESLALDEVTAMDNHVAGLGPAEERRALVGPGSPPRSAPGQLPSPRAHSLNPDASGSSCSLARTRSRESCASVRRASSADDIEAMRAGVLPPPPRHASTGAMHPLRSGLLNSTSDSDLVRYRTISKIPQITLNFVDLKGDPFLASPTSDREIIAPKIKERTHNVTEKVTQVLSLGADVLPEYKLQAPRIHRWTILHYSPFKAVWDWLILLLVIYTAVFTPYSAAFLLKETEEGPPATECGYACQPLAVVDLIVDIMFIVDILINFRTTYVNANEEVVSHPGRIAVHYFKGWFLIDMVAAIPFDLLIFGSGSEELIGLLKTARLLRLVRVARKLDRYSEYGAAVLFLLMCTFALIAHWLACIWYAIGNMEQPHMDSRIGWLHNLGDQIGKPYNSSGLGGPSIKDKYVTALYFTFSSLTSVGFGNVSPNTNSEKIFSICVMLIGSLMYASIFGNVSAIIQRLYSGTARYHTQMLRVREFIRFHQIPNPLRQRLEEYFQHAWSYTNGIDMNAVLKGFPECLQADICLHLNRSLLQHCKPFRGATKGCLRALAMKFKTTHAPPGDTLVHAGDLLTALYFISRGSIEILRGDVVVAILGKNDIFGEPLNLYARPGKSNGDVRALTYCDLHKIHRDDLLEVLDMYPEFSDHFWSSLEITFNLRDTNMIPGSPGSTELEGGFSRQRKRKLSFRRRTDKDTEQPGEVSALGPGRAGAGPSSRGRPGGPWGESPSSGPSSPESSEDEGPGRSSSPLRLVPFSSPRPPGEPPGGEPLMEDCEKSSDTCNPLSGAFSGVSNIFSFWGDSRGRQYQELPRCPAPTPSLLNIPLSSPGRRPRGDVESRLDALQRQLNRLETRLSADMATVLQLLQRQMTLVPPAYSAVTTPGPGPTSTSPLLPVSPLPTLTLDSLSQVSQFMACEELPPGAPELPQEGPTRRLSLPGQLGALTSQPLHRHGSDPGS
# Chain of 5-hydroxytryptamine receptor 2B (Homo sapiens) (P41595 whole entry): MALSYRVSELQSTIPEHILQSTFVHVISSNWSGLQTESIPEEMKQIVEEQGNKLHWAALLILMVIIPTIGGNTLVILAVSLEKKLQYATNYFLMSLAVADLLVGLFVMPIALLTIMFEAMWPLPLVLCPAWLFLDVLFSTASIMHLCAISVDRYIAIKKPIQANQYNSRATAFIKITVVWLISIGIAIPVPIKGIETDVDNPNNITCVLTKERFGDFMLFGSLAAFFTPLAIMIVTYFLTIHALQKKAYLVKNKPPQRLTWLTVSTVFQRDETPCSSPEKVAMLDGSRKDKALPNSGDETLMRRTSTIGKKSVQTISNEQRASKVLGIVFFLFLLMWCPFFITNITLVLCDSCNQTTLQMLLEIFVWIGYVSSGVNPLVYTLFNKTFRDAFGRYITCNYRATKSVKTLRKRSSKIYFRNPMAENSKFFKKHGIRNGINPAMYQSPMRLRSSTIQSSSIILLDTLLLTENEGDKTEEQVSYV
smiles,measurement,setting,value
CC(C)(O)c1coc(S(=O)(=O)NC(=O)Nc2c3c(cc4c2CCC4)CCC3)c1,Papp at 4 h,[1],< 0.0003 ×10⁻⁶ cm/s
same,IC50,[2],> 40 µM
same,IC50,[3],> 40 µM
CC(C)OC(=O)[C@@H](Cn1cncn1)OC(=O)Nc1c2c(cc3c1CCC3)CCC2,Papp at 4 h,[1],13.7 ×10⁻⁶ cm/s
same,solubility kinetic at 24 h,[4],37 µM
same,IC50,Cytochrome P450 1A2,0.18 µM
CCOC(=O)COC(=O)Nc1c(F)cccc1F,IC50,[5],1.9 µM
same,IC50,[6],9.4 µM
CCOC(=O)CNC(=O)Oc1c2c(cc3c1CCC3)CCC2,IC50,[5],> 40 µM
same,IC50,[6],> 40 µM
CCOC(=O)COC(=O)N(C)c1c2c(cc3c1CCC3)CCC2,IC50,[5],> 40 µM
same,IC50,[6],> 40 µM
CCOC(=O)COC(=O)Nc1cc(C)ccc1C,IC50,[5],0.97 µM
same,IC50,[6],2.9 µM
CCOC(=O)COC(=O)Nc1c(Cl)cccc1Cl,IC50,[5],1 µM
same,IC50,[6],9.2 µM
CCOC(=O)COC(=O)Nc1c(C)cc(C)cc1C,IC50,[5],0.59 µM
same,IC50,[6],3.9 µM
CCOC(=O)COC(=O)Nc1c(CC)cccc1CC,IC50,[5],0.81 µM
same,IC50,[6],13 µM
CCOC(=O)COC(=O)Nc1ccccc1C#N,IC50,[5],5.5 µM
same,IC50,[6],6.8 µM
CCOC(=O)COC(=O)Nc1c(C)cccc1C,IC50,[5],0.93 µM
same,IC50,[6],1.1 µM
CCOC(=O)[C@@H](Cc1ncccn1)NC(=O)Nc1c2c(cc3c1CCC3)CCC2,Papp at 4 h,[1],8.2 ×10⁻⁶ cm/s
same,IC50,[2],2.7 µM
same,IC50,[3],4.3 µM
CC(C)OC(=O)[C@@H](Cn1cc(C#N)cn1)OC(=O)Nc1c2c(cc3c1CCC3)CCC2,Papp at 4 h,[1],5 ×10⁻⁶ cm/s
same,solubility kinetic at 24 h,[4],< 1 µM
same,IC50,Cytochrome P450 2C19,4.4 µM
CC(C)OC(=O)[C@@H](Cc1ncccn1)OC(=O)Nc1c2c(cc3c1CCC3)CCC2 [NT-0796],MEC,[7],> 40 µM
same,Papp at 4 h,[1],11.8 ×10⁻⁶ cm/s
same,IC50,[2],> 2 µM
same,Kp at 5 min,[8],0.79
same,IC50,Cytochrome P450 2B6,> 30 µM
same,inhibition,NLRC4 (Homo sapiens),inactive
same,Activity,[9],90%
same,solubility kinetic at 24 h,[4],28 µM
same,IC50,[3],> 2 µM
same,Activity,[10],Non-Toxic
same,concentration at 5 min,[11],479 ng/g
same,IC50,Cytochrome P450 1A2,> 30 µM
same,IC50,Cytochrome P450 2C19,> 30 µM
same,IC50,Cytochrome P450 2C8,> 30 µM
same,concentration at 5 min,[12],610 ng/mL
same,IC50,Cytochrome P450 2C9,> 30 µM
same,IC50,[13],> 30 µM
same,Activity,[14],Non-Toxic
same,MEC,HepG2,> 40 µM
same,IC50,Cytochrome P450 3A4 [15],> 30 µM
same,IC50,Cytochrome P450 2D6,> 30 µM
same,IC50,Cytochrome P450 3A4 [16],> 30 µM
CCOC(=O)COC(=O)Nc1c(C)cccc1CC,IC50,[5],1.5 µM
same,IC50,[6],2.4 µM
CCOC(=O)COC(=O)Nc1c(C(C)C)cccc1C(C)C,IC50,[5],10 µM
same,IC50,[6],> 20 µM
COC(=O)CN(C)C(=O)Nc1c2c(cc3c1CCC3)CCC2,IC50,[5],> 40 µM
same,IC50,[6],> 40 µM
CCOC(=O)COC(=O)Nc1ccccc1C(F)(F)F,IC50,[5],> 20 µM
same,IC50,[6],> 20 µM
CCOC(=O)COC(=O)Nc1ccccc1C(C)C,IC50,[5],1.6 µM
same,IC50,[6],5.5 µM
O=C(Nc1c2c(cc3c1CCC3)CCC2)O[C@H](Cc1ncccn1)C(=O)O,Papp at 4 h,[1],< 0.0002 ×10⁻⁶ cm/s
same,Kp at 5 min,[8],0.07
same,IC50,[5],0.066 µM
same,solubility kinetic at 24 h,[4],> 200 µM
same,IC50,[6],4.7 µM
same,concentration at 5 min,[11],91.7 ng/g
same,IC50,Cytochrome P450 1A2,> 30 µM
same,IC50,Cytochrome P450 2C19,> 30 µM
same,concentration at 5 min,[12],1160 ng/mL
same,IC50,Cytochrome P450 2C9,> 30 µM
same,IC50,Cytochrome P450 2D6,> 30 µM
same,IC50,Cytochrome P450 3A4 [16],> 30 µM
CCOC(=O)COC(=O)Nc1ccccc1OC(F)(F)F,IC50,[5],> 20 µM
same,IC50,[6],> 20 µM
CC(C)OC(=O)[C@@H](Cc1cnccn1)OC(=O)Nc1c2c(cc3c1CCC3)CCC2,Papp at 4 h,[1],13.7 ×10⁻⁶ cm/s
same,solubility kinetic at 24 h,[4],5.5 µM
same,IC50,Cytochrome P450 1A2,1.1 µM
O=C(Nc1c2c(cc3c1CCC3)CCC2)O[C@H](Cc1ncccn1)C(=O)OC1CCCC1,Papp at 4 h,[1],3.5 ×10⁻⁶ cm/s
same,solubility kinetic at 24 h,[4],< 1 µM
